The target in assay [1] is wild-type human cardiac sodium channel, hNaV 1.5 (Late INa) (Homo sapiens, UniProt Q14524). As to the kind of experiment: Late INa screening assay (whole cell patch clamp, QPatch, Tefluthrin-induced late current). Type of assay: cell-based. The settings on record: HEK293, % inhibition (percent block of late INa) at 1 uM; HEK293 hNaV1.5; 10 μM Tefluthrin; read-out: Nav1.5 Late INa 1 uM. How it is done:
The cardiac late sodium current (Late INa) and peak sodium current (Peak INa) assays are performed on an automated electrophysiology platform, QPatch 16X or QPatch HT (Sophion Bioscience, Copenhagen, Denmark) using the whole cell patch clamp technique to measure currents through the cell membrane. The assay uses an HEK293 (human embryonic kidney) cell line heterologously expressing the wild-type human cardiac sodium channel, hNaV 1.5, purchased from Millipore (Billerica, Mass.). No beta subunits were coexpressed with the Na channel alpha subunit. Cells are maintained with standard tissue culture procedures and stable channel expression is maintained with 400 μg/mL Geneticin in the culture medium. Experiments are carried out at 23-25° C.
For both the Late INa and Peak INa assays, series resistance compensation is set to 100% and series resistance and whole-cell compensation are performed automatically. Currents are digitized at 25 kHz and low-pass filtered at 5 kHz and stored in the Sophion Bioscience Oracle database (Sophion Bioscience, Copenhagen, Denmark). Analysis is performed using QPatch Assay software and data are compiled in Excel 2010 (Microsoft, Seattle, Wash., U.S.A.).
Compound stocks are routinely made by the Gilead Sample Bank in vials to 10 mM in dimethyl sulfoxide (DMSO). In some cases, when compounds are not soluble in DMSO, they are made in 100% ethanol. Stocks are sonicated as necessary. The extracellular solution for screening Late INa is composed of: 140 mM NaCl, 4 mM KCl, 1.8 mM CaCl2, 1 mM MgCl2, 10 mM HEPES and 10 mM Dextrose with pH adjusted to 7.35 using NaOH. The intracellular solution contains: 105 mM CsF, 20 mM CsCl, 10 NaF, 2 mM EGTA, 10 mM HEPES and 10 mM Dextrose with pH adjusted to 7.35 with CsOH. Compounds are diluted in extracellular solution using a MicroLab Nimbus (Hamilton Robotics, Reno, Nev.) to between 0.3 and 3 μM in glass vials and transferred to glass well plates before robotic addition to the cells. The 0 mM Na extracellular solution (0Na-ECF) used at the end of each experiment for the Late INa and Peak INa assays to measure baseline current contains: 140 Choline-Cl; 4 mM KCl, 1.8 mM CaCl2; 1 mM MgCl2; 10 mM HEPES and 10 mM Dextrose with pH was adjusted to 7.35 with CsOH.
For the Late INa assay, sodium channels are activated every 10 seconds (0.1 Hz) by depolarizing the cell membrane to −20 mV for 250 milliseconds (ms) from a holding potential of −120 mV.
Compounds were tested to determine their activity in blocking the late sodium current. Late INa was generated by adding 10 μM Tefluthrin (pyrethroid) to the extracellular solution. For the purposes of the screening, Late INa is defined as the mean current between 240 ms and 265 ms during the voltage step to −20 mV. After establishing the whole cell recording configuration, Late INa activator is added to each well 4 times over a 15 minute period so that the late component of the Na current reaches a stable value. Compounds were then added (typically at 0.3 or 1 μM), in the presence of the Late INa activator, with 3 additions over the course of 5 minutes. Measurements were made at the end of exposure to the third compound addition and values were normalized to the current level when all Na^+ was removed from the extracellular solution after two additions of 0Na-ECF.
Results are reported as percent block of late INa and results were analyzed by incorporating rundown correction for the Late INa.

For another assay, the target named is hNaV1.1 (SCN1A) (Homo sapiens, UniProt P35498). As to the kind of experiment: Use-dependent inhibition of the CNS NaV1.1 sodium channel. Format: cell-based. Particulars: % inhibition, 25 Hz; for inhibition at 1 µM: use-dependent block at 1 uM, read-out: Nav1.1 UDB 25 Hz 1 uM; for inhibition at 10 µM: use-dependent block at 10 uM, read-out: Nav1.1 UDB 25 Hz 10 uM. How it is done:
HEK-293 cells stably expressing wild-type (WT) hNaV1.1 (SCN1A, NCBI# AB09354) were obtained from Millipore (Cat. # CYL3009) were used to record INa. Cells are maintained with standard tissue culture procedures and stable channel expression is maintained with 400 ug/mL G418 in the culture medium. Unless otherwise noted, all reagents are purchased from Sigma-Aldrich (St Louis, Mo., U.S.A.).
Assays measuring Use-Dependent Block (UDB) of NaV1.2 are performed on an automated electrophysiology platform, QPatch 16X or QPatch HT (Sophion Bioscience, Copenhagen, Denmark), using the whole cell patch clamp technique to measure currents through the cell membrane. Series resistance compensation is set to 100% and series resistance and whole-cell compensation are performed automatically. Currents stored in the Sophion Bioscience Oracle database (Sophion Bioscience, Copenhagen, Denmark). Analysis is performed using QPatch Assay software and data are compiled in Excel 2010 (Microsoft, Seattle, Wash., U.S.A.).
The internal (pipette) solution consists of (in mM) 105 CsF, 10 NaF, 20 CsCl, 2 EGTA, 10 HEPES, 10 Dextrose with a pH of 7.35 and osmolarity of 300 mOsmol/kg. The external (bath) solution contains in (mM): 145 NaCl, 4 KCl, 1.8 CaCl2, 1 MgCl2, 10 dextrose, 10 HEPES, with a pH of 7.35 and osmolarity of 310 mOsmol/kg. Experiments are carried out at 23-25° C.
Compound stocks are routinely made by the Gilead Sample Bank in vials to 10 mM in dimethyl sulfoxide (DMSO). In some cases, when compounds are not soluble in DMSO, they are made in 100% ethanol. Stocks are sonicated as necessary. […]
Cells are allowed to stabilize for 10 min after establishment of the whole-cell configuration before current is measured. The test compound is applied 2 times at 60 second intervals. After the second compound addition, a 200 second wait period was imposed to allow for equilibration.
Leak currents are subtracted by using an online P/4 procedure and all currents are low-pass Bessel filtered at 5 kHz and digitized at […].
Use-dependent block of NaV1.2 peak current is measured during pulse number 20 of a voltage pulse train (0 mV, 20 ms, 20 pulses, 25 Hz) from a holding potential of −120 mV. Currents are normalized to the peak current recorded in response to the first pulse in each frequency train. The voltage protocol for UDB was performed in the absence and presence of compound and percentage inhibition was calculated with respect to the compound free condition. Results are presented as mean percentage inhibition and data analysis is performed using QPatch Assay Software 4.0, and Excel 2002 (Microsoft, Seattle, Wash., U.S.A.).

Structures are written as SMILES.

wild-type human cardiac sodium channel, hNaV 1.5 (Late INa), sequence (Q14524 whole entry): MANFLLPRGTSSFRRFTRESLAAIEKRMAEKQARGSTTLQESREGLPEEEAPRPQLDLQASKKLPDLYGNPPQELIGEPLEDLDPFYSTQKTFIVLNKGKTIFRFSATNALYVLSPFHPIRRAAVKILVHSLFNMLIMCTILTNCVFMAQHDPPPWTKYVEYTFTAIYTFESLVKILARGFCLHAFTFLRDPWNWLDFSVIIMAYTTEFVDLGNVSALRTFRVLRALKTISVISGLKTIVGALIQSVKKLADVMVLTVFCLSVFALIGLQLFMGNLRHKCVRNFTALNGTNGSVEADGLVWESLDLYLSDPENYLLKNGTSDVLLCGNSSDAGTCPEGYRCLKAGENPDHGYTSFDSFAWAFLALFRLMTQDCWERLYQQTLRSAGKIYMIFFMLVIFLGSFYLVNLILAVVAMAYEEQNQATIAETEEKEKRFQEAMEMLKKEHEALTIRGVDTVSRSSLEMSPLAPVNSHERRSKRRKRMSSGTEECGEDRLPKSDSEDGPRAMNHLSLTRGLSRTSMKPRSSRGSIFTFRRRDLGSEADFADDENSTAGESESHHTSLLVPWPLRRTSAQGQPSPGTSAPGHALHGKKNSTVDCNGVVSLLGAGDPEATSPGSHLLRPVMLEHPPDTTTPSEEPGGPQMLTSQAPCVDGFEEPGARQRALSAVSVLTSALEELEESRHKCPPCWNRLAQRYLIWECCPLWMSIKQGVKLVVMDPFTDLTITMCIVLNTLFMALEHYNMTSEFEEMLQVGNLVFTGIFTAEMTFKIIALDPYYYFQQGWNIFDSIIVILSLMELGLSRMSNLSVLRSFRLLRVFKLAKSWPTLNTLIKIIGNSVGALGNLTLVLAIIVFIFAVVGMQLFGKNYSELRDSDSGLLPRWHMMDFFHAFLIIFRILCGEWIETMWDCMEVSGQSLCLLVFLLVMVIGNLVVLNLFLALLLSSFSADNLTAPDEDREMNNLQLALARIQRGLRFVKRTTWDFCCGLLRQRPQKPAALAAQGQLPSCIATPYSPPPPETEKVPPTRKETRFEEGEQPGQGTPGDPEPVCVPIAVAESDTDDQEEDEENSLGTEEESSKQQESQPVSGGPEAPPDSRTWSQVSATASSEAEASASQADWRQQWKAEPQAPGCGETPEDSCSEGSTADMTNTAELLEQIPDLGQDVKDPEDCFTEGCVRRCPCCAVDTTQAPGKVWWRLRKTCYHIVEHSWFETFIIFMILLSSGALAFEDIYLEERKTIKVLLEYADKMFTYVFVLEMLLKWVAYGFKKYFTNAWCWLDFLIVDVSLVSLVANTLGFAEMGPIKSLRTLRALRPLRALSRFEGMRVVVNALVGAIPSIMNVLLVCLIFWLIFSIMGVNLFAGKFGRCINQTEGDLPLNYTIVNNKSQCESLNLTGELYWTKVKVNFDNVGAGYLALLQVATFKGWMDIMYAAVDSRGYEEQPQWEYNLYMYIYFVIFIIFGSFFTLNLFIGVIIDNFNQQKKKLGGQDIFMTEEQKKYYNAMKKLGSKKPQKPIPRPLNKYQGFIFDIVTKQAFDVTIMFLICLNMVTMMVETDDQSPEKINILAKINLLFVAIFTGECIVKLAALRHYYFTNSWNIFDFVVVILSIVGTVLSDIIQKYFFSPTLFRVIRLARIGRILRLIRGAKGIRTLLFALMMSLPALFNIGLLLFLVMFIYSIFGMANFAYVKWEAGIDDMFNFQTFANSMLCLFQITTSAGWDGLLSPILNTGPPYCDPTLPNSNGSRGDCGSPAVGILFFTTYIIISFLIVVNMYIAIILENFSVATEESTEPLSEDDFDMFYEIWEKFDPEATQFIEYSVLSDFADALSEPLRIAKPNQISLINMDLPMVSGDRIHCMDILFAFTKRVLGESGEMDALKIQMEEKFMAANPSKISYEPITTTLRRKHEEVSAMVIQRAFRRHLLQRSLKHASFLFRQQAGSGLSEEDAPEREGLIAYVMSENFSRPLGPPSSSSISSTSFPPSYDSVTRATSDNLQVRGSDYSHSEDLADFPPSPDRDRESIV

In the case of `O=C1Oc2ccc(-c3ccc(C(F)(F)F)cc3)cc2CN1Cc1ncccn1` [Example 4, 3-(pyrimidin-2-ylmethyl)-6-(4-(trifluoromethyl)phenyl)-3,4-dihydro-2H-benzo[e][1,3]oxazin-2-one], the figures for the inhibition at 1 µM (in assay [1]; at hNaV1.1 (SCN1A)) were 53.9% and 49.9%, respectively. Also, the inhibition at 10 µM on hNaV1.1 (SCN1A) was determined as 76.5%.

Take `Cc1nccc(CN2Cc3cc(-c4ccc(OC(F)(F)F)cc4)ccc3OC2=O)n1` [Example 15, 3-((2-methylpyrimidin-4-yl)methyl)-6-(4-(trifluoromethoxy)phenyl)-3,4-dihydro-2H-benzo[e][1,3]oxazin-2-one]: in assay [1], the inhibition at 1 µM was found to be 30%.

In the case of `O=C1Oc2cc3c(cc2CN1Cc1ncccn1)-c1ccc(OC(F)(F)F)cc1C3` [Example 60, 3-(pyrimidin-2-ylmethyl)-8-(trifluoromethoxy)-3,4-dihydrofluoreno[3,2-e][1,3]oxazin-2(10H)-one], in assay [1], the inhibition at 1 µM worked out at 11.2%.

Regarding `CC1c2cc(-c3cccc(Oc4ccccc4)c3)ccc2OC(=O)N1Cc1ncccn1` (stereo not drawn) [Example 51, 4-methyl-6-(3-phenoxyphenyl)-3-(pyrimidin-2-ylmethyl)-3,4-dihydro-2H-benzo[e][1,3]oxazin-2-one], the inhibition at 1 µM in assay [1] was found to be 41.6%.

As to `CC1c2cc(-c3ccc(C(F)(F)F)cc3)ccc2OC(=O)N1Cc1ncccn1` (stereo not drawn) [Example 49, 4-methyl-3-(pyrimidin-2-ylmethyl)-6-(4-(trifluoromethyl)phenyl)-3,4-dihydro-2H-benzo[e][1,3]oxazin-2-one], the inhibition at 1 µM in assay [1] was determined as 41.5%; at hNaV1.1 (SCN1A), 21.5%. Moreover, the inhibition at 10 µM on hNaV1.1 (SCN1A) was 82.4%.

Regarding `O=C1Oc2ccc(-c3ccc(OC(F)(F)F)cc3)cc2CN1Cc1ncccn1` [Example 3, 3-(pyrimidin-2-ylmethyl)-6-(4-(trifluoromethoxy)phenyl)-3,4-dihydro-2H-benzo[e][1,3]oxazin-2-one], in assay [1], the inhibition at 1 µM was found to be 51.8%. On hNaV1.1 (SCN1A), the inhibition at 1 µM came out at 42.6% and the inhibition at 10 µM was determined as 91.6%.

For the origin of these results see US9416128B2, “Fused heterocyclic compounds as ion channel modulators” (Gilead Sciences, Inc., priority 2013, dated 2016).
